# Patent US11377442B2, “Small molecule agonists and antagonists of NR2F6 activity” (ZANDER THERAPEUTICS, INC., priority 2016, dated 2022)
# Read-outs that look alike come from different tables or passages of the source.
# Columns and labels:
# Type in all cases: cell-based
# NR2F6 = biological target: T1, NR2F6 (Homo sapiens, UniProt P10588); assay: NR2F6 agonist screening, Firefly signal cmpd/DMSO; conditions: for activity (in words): screening result
# T1 construct: expressed in transfected cells; also transient transfection
# T1 sequence (P10588 1-404): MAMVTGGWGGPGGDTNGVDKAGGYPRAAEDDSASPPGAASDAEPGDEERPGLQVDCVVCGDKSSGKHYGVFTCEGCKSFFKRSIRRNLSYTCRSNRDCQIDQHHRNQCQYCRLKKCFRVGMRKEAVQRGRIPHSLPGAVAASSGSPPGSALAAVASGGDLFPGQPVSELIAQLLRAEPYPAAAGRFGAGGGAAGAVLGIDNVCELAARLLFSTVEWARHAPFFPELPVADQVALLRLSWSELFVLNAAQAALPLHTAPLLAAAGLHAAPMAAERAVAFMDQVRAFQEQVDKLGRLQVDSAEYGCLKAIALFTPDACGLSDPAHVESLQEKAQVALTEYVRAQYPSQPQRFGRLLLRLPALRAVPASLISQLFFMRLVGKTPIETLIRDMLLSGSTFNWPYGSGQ
# ERα [1] = biological target: T2, ERα (Homo sapiens, UniProt P03372); assay: Counterscreening, Firefly signal with ERα transient transfection (Firefly_ERa); conditions: 10 uM
# T2 construct: expressed in transfected cells
# T2 sequence (P03372 1-595): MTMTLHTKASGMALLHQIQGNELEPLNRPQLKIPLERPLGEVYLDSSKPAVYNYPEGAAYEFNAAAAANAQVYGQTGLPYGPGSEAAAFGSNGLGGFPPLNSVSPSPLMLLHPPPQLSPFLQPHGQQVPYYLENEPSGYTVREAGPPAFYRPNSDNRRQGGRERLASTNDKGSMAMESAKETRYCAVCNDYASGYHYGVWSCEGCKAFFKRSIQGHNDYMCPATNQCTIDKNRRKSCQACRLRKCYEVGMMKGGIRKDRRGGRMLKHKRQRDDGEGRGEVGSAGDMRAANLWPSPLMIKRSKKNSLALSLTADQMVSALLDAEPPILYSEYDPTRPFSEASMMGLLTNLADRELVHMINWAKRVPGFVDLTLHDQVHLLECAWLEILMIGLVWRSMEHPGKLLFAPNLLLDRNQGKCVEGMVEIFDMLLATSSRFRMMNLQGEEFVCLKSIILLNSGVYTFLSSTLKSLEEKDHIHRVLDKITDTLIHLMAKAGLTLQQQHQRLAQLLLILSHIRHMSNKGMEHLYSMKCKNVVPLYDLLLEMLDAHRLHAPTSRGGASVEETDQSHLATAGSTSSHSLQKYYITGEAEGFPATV
# Description: The methodology for screening candidate compounds as NR2F6 agonists was as follows: For primary screening, hit criteria was ACT %>DMSO control+5*SD (DSO control) at 10 μM, or any compound with S/B>2. For rescreening, hit criteria was ACT %>DMSO control+3*SD (DSO control) in each replicate at 10 μM. For counterscreening, hit criteria was mean ACT<DMSO control+3*SD (DMSO control) with ERα transient transfection in duplicate at 10 μM.
# Renilla = Renilla signal in NR2F6 agonist screening, cmpd/DMSO; conditions: for fold induction at 2 µM / fold induction at 10 µM / fold induction at 40 µM: Renilla, read-out: Renilla F4, cmpd/DMSO (mean)
# Renilla_ERa = assay: Renilla signal in ERα counterscreen (Renilla_ERa); conditions: for fold induction at 2 µM / fold induction at 10 µM / fold induction at 40 µM: read-out: Renilla ERalpha transient, cmpd/DMSO (mean)
# ERα [2] = biological target: T2, ERα; assay: Counterscreening, Firefly signal with ERα transient transfection (Firefly_ERa)
"Firefly F4, cmpd/DMSO (mean) (NR2F6; 2 uM, clone F4)","Firefly F4, cmpd/DMSO (mean) (NR2F6; 10 uM, clone F4)","Firefly F4, cmpd/DMSO (mean) (NR2F6; 40 uM, clone F4)","Firefly ERalpha transient, cmpd/DMSO (mean) (ERα [1])","Firefly ERalpha transient, cmpd/DMSO (mean) (ERα [2]; 2 uM)","Firefly ERalpha transient, cmpd/DMSO (mean) (ERα [2]; 40 uM)","Firefly F4, cmpd/DMSO (mean) (NR2F6; Table 15, 2 uM)","Firefly F4, cmpd/DMSO (mean) (NR2F6; Table 15, 10 uM)","Firefly F4, cmpd/DMSO (mean) (NR2F6; Table 15, 40 uM)","Firefly ERalpha transient, cmpd/DMSO (mean) (ERα [1]; Table 15)","Firefly ERalpha transient, cmpd/DMSO (mean) (ERα [2]; Table 15, 2 uM)","Firefly ERalpha transient, cmpd/DMSO (mean) (ERα [2]; Table 15, 40 uM)",SMILES,"fold induction at 2 µM (Renilla; 2 uM, clone F4)","fold induction at 10 µM (Renilla; 10 uM, clone F4)","fold induction at 40 µM (Renilla; 40 uM, clone F4)",fold induction at 2 µM (Renilla_ERa; 2 uM),fold induction at 10 µM (Renilla_ERa; 10 uM),fold induction at 40 µM (Renilla_ERa; 40 uM),also measured
0.9,1.3,2.0,1.0,0.9,1.7,–,–,–,–,–,–,COC(=O)c1[nH]c2c(c(C(F)(F)F)nc3ccc(OC)cc32)c1N [Compound Z47],1.1,1.2,1.7,1.2,1.4,1.2,–
1.7,2.0,6.6,1.8,2.1,8.8,–,–,–,–,–,–,CCOC(=O)c1cnc2ccc(C)cc2c1NCCCN(C)C [Compound Z33],1.1,1,0.6,1,1.5,0.9,activity (in words) (NR2F6): particularly good activity
1.6,3.8,0.7,10.3,2.0,0.9,–,–,–,–,–,–,CCOC(=O)c1cnc2cc(C)c(C)cc2c1NCCCN(C)C [Compound Z34],1.2,0.8,0.6,1.5,1,0.7,activity (in words) (NR2F6): particularly good activity
–,–,–,–,–,–,1.4,1.5,1.6,2.4,1.5,1.1,CCOC(=O)c1cnc2c(C)cc(C)cc2c1N1CCC(O)CC1 [Compound Z78],–,–,–,–,–,–,"fold induction at 2 µM (Renilla; Table 15, 2 uM): 1.1; fold induction at 10 µM (Renilla; Table 15, 10 uM): 1; fold induction at 40 µM (Renilla; Table 15, 40 uM): 0.8; fold induction at 2 µM (Renilla_ERa; Table 15, 2 uM): 1; fold induction at 10 µM (Renilla_ERa; Table 15, 10 uM): 0.9; fold induction at 40 µM (Renilla_ERa; Table 15, 40 uM): 0.6"
–,–,–,–,–,–,1.7,2.5,0.8,9.1,3.0,0.7,CCOC(=O)c1cnc2c(C)cc(C)cc2c1NCCCN1CCCC1 [Compound Z61],–,–,–,–,–,–,"fold induction at 2 µM (Renilla; Table 15, 2 uM): 1.3; fold induction at 10 µM (Renilla; Table 15, 10 uM): 0.5; fold induction at 40 µM (Renilla; Table 15, 40 uM): 0.6; fold induction at 2 µM (Renilla_ERa; Table 15, 2 uM): 1.4; fold induction at 10 µM (Renilla_ERa; Table 15, 10 uM): 0.8; fold induction at 40 µM (Renilla_ERa; Table 15, 40 uM): 0.7"
1.0,0.9,1.3,1.1,1.8,1.3,–,–,–,–,–,–,Cc1cc(C)c2ncc(C(=O)O)c(NCCCN(C)C)c2c1 [Compound Z28],1,1.2,1.2,1.1,1.3,1,–
–,–,–,–,–,–,0.8,1.0,0.8,1.0,1.4,0.4,CCOC(=O)c1cnc2c(C)cc(C)cc2c1NCCCOC [Compound Z71],–,–,–,–,–,–,"fold induction at 2 µM (Renilla; Table 15, 2 uM): 1.1; fold induction at 10 µM (Renilla; Table 15, 10 uM): 0.9; fold induction at 40 µM (Renilla; Table 15, 40 uM): 0.4; fold induction at 2 µM (Renilla_ERa; Table 15, 2 uM): 1; fold induction at 10 µM (Renilla_ERa; Table 15, 10 uM): 1; fold induction at 40 µM (Renilla_ERa; Table 15, 40 uM): 0.5"

# More lines, now with the values behind:
SMILES,"Firefly F4, cmpd/DMSO (mean) (NR2F6; 2 uM, clone F4)","Firefly F4, cmpd/DMSO (mean) (NR2F6; 10 uM, clone F4)","Firefly F4, cmpd/DMSO (mean) (NR2F6; 40 uM, clone F4)","Firefly ERalpha transient, cmpd/DMSO (mean) (ERα [1])","Firefly ERalpha transient, cmpd/DMSO (mean) (ERα [2]; 2 uM)","Firefly ERalpha transient, cmpd/DMSO (mean) (ERα [2]; 40 uM)","Firefly F4, cmpd/DMSO (mean) (NR2F6; Table 15, 2 uM)","Firefly F4, cmpd/DMSO (mean) (NR2F6; Table 15, 10 uM)","Firefly F4, cmpd/DMSO (mean) (NR2F6; Table 15, 40 uM)","Firefly ERalpha transient, cmpd/DMSO (mean) (ERα [1]; Table 15)","Firefly ERalpha transient, cmpd/DMSO (mean) (ERα [2]; Table 15, 2 uM)","Firefly ERalpha transient, cmpd/DMSO (mean) (ERα [2]; Table 15, 40 uM)","fold induction at 2 µM (Renilla; 2 uM, clone F4)","fold induction at 10 µM (Renilla; 10 uM, clone F4)","fold induction at 40 µM (Renilla; 40 uM, clone F4)",fold induction at 2 µM (Renilla_ERa; 2 uM),fold induction at 10 µM (Renilla_ERa; 10 uM),fold induction at 40 µM (Renilla_ERa; 40 uM),also measured
O=c1cccc2n1CC1CC2CN(c2nc(Cl)nc(NCCN3CCOCC3)n2)C1 (centres unmarked) [Compound 27],1.0,1.0,1.0,1.2,1.2,1.2,–,–,–,–,–,–,0.9,0.9,0.8,1.1,1.1,1.2,–
O=c1cccc2n1CC1CC2CN(c2nc(NCCC3=CCCCC3)nc(N3CCCC3)n2)C1 (centres unmarked) [Compound 32],0.8,1.3,0.8,1.2,1.2,0.7,–,–,–,–,–,–,1.2,1.4,1,1.2,1.3,1.1,–
CCCCCCNc1nc(OC)nc(N2CCn3c(cccc3=O)C2)n1 [Compound 41],0.8,0.9,0.9,1.5,1.5,1.4,–,–,–,–,–,–,–,–,–,–,–,–,"Renilla F4, cmpd/DMSO (mean) (Renilla; 2 uM, clone F4): 1.1; Renilla F4, cmpd/DMSO (mean) (Renilla; 10 uM, clone F4): 1.1; Renilla F4, cmpd/DMSO (mean) (Renilla; 40 uM, clone F4): 1.1; Renilla ERalpha transient, cmpd/DMSO (mean) (Renilla_ERa; 2 uM): 1.2; Renilla ERalpha transient, cmpd/DMSO (mean) (Renilla_ERa; 10 uM): 1.2; Renilla ERalpha transient, cmpd/DMSO (mean) (Renilla_ERa; 40 uM): 1.1"
COc1cccc(-c2noc(Cn3ncc4ccccc4c3=O)n2)c1 [Compound Z6],–,–,–,–,–,–,1.4,1.4,1.1,2.2,2.0,1.1,–,–,–,–,–,–,"Renilla F4, cmpd/DMSO (mean) (Renilla; Table 15, 2 uM): 1.1; Renilla F4, cmpd/DMSO (mean) (Renilla; Table 15, 10 uM): 1.1; Renilla F4, cmpd/DMSO (mean) (Renilla; Table 15, 40 uM): 0.9; Renilla ERalpha transient, cmpd/DMSO (mean) (Renilla_ERa; Table 15, 2 uM): 1.1; Renilla ERalpha transient, cmpd/DMSO (mean) (Renilla_ERa; Table 15, 10 uM): 1.1; Renilla ERalpha transient, cmpd/DMSO (mean) (Renilla_ERa; Table 15, 40 uM): 0.9"
CC(C)Nc1nc(N2CCCC2)nc(N2CCn3c(cccc3=O)C2)n1 [Compound 35],1.1,1.0,0.8,0.9,1.0,1.3,–,–,–,–,–,–,–,–,–,–,–,–,"Renilla F4, cmpd/DMSO (mean) (Renilla; 2 uM, clone F4): 1.1; Renilla F4, cmpd/DMSO (mean) (Renilla; 10 uM, clone F4): 0.9; Renilla F4, cmpd/DMSO (mean) (Renilla; 40 uM, clone F4): 0.9; Renilla ERalpha transient, cmpd/DMSO (mean) (Renilla_ERa; 2 uM): 1.0; Renilla ERalpha transient, cmpd/DMSO (mean) (Renilla_ERa; 10 uM): 1.0; Renilla ERalpha transient, cmpd/DMSO (mean) (Renilla_ERa; 40 uM): 1.1"
O=c1cccc2n1CC1CC2CN(c2nc(N3CCOCC3)nc(N3CCOCC3)n2)C1 (centres unmarked) [Compound 31],0.8,1.0,0.9,1.2,0.8,1.0,–,–,–,–,–,–,1,1,1,1,1.1,1.1,–
